This passage reports TGI and GI50 results from PubChem BioAssay (NCI).

Each structure is given as a SMILES string.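 Tested at 5 concentrations; 48 h exposure; 96-well plates; endpoints linearly interpolated, else capped at highest concentration. GI50 is the concentration that inhibits growth by half. TGI marks complete inhibition of growth.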

Among the test systems are NCI-H23 lung; SNB-75 CNS; UO-31 renal; HS 578T breast; SK-MEL-2 melanoma; SN12C renal; SF-268 CNS; SK-MEL-5 melanoma; UACC-62 melanoma; TK-10 renal.
What all share (experiment): NCI-60 cell line screen, 48 h

Consider `COc1c(-c2ccc(F)cc2)oc2cc(O)cc(O)c2c1=O`, for which the TGI in the experiment with NCI-H23 lung was 78.2 µM; in the experiment with SNB-75 CNS it was 64 µM; in the experiment on UO-31 renal, 42.1 µM; in the experiment on HS 578T breast, over 100 µM; with SK-MEL-2 melanoma, 64.3 µM; in the experiment on SN12C renal it was 83.6 µM. Also, the TGI in the experiment on SF-268 CNS was over 100 µM; in the experiment with SK-MEL-5 melanoma, 30.1 µM.

Consider `CCOC(=O)NC(OCc1ccccc1)(C(=O)OC)C(F)(F)F` (stereo not given), for which the TGI in the experiment on NCI-H23 lung, with UO-31 renal, in the experiment with HS 578T breast, in the experiment on SK-MEL-2 melanoma, in the experiment with UACC-62 melanoma and in the experiment on SN12C renal was over 100 µM in each case. Besides, the TGI in the experiment on TK-10 renal, in the experiment with SF-268 CNS and in the experiment with SK-MEL-5 melanoma was over 100 µM in each case.

Take `COc1ccc(/C=N/N=C(\N)NO)c(OC)c1OC`: the TGI with NCI-H23 lung is over 100 µM; in the experiment on UO-31 renal, 91.9 µM; in the experiment with HS 578T breast, over 100 µM; in the experiment on SK-MEL-2 melanoma, over 100 µM; in the experiment with UACC-62 melanoma it was over 100 µM; in the experiment with SN12C renal, over 100 µM. For the same compound, the results for the TGI in the experiment with TK-10 renal, with SF-268 CNS and in the experiment on SK-MEL-5 melanoma were over 100 µM, over 100 µM and 72 µM, respectively.

As to `Cc1cccc(=O)c([O-])c1.Cc1cccc(=O)c([O-])c1.Cc1cccc(=O)c([O-])c1.Cc1cccc(=O)c([O-])c1.[Th+4]`, the TGI in the experiment with NCI-H23 lung is over 76.6 µM; with SNB-75 CNS it was over 77.7 µM; with UO-31 renal it was over 100 µM; in the experiment with SK-MEL-2 melanoma it was 97.5 µM; in the experiment on UACC-62 melanoma, 19.6 µM; with SN12C renal, over 100 µM. The TGI in the experiment on TK-10 renal was over 100 µM; in the experiment on SF-268 CNS it was over 100 µM; in the experiment with SK-MEL-5 melanoma it was 31.9 µM.

With `Oc1ccc(O)c(Sc2nnc(CCCCCCCCc3nnc(Sc4cc(O)ccc4O)o3)o2)c1`, the TGI was over 100 µM with NCI-H23 lung; over 100 µM in the experiment with SNB-75 CNS; 32 µM with UO-31 renal; over 100 µM in the experiment on SK-MEL-2 melanoma; over 100 µM in the experiment on UACC-62 melanoma; over 100 µM in the experiment with SN12C renal. For the same compound, the TGI with TK-10 renal, in the experiment with SF-268 CNS and in the experiment with SK-MEL-5 melanoma was over 100 µM throughout.

On to `O=C(c1ccccc1)c1ccc2nc(-c3c(Cl)c(Cl)c(Cl)c(Cl)c3C(=O)Nc3ccco3)[nH]c2c1`, for which the TGI was over 100 µM in the experiment with NCI-H23 lung; over 100 µM in the experiment on SNB-75 CNS; over 100 µM in the experiment on UO-31 renal; 80.4 µM in the experiment on SK-MEL-2 melanoma; over 100 µM in the experiment on UACC-62 melanoma; over 100 µM in the experiment with SN12C renal. The TGI with TK-10 renal, with SF-268 CNS and with SK-MEL-5 melanoma was over 100 µM each time.

Consider `COc1ccc(C2C3=CONC3CC3CCCCC32)cc1` (stereo not given), for which the TGI in the experiment on NCI-H23 lung, in the experiment with SNB-75 CNS, in the experiment on UO-31 renal, in the experiment on SK-MEL-2 melanoma, in the experiment with UACC-62 melanoma and in the experiment with TK-10 renal was over 100 µM in each case. For the same compound, the TGI with SF-268 CNS and in the experiment with SK-MEL-5 melanoma was over 100 µM in each case.

Consider `O=C(O)c1cc(Nc2c(O)c3c(c(O)c2Cl)C(=O)C=CC3=O)ccc1O`, for which the TGI with NCI-H23 lung, in the experiment on SNB-75 CNS, in the experiment with UO-31 renal, in the experiment with HS 578T breast, with UACC-62 melanoma and in the experiment with SN12C renal was over 10 µM in each case. Besides, the TGI in the experiment on TK-10 renal, in the experiment with SF-268 CNS and with SK-MEL-5 melanoma was over 10 µM throughout.

In the case of `COc1ccc(Nc2nc(NNC(=O)Cc3ccccc3)nc(NNC(=O)c3ccncc3)n2)cc1`, the TGI with NCI-H23 lung was over 10 µM; in the experiment on SNB-75 CNS, over 10 µM; in the experiment with UO-31 renal, over 10 µM; in the experiment with UACC-62 melanoma, 8.65 µM; with SN12C renal, over 10 µM; in the experiment on TK-10 renal, over 10 µM. In addition, the TGI in the experiment with SF-268 CNS and with SK-MEL-5 melanoma was over 10 µM each time.

With `Cc1ccc(C(=O)NN=C(/N=N/c2cccc(C)c2)c2ccc(N(C)C)cc2)cc1`, the TGI in the experiment on NCI-H23 lung, with UO-31 renal, in the experiment with HS 578T breast, with SK-MEL-2 melanoma, in the experiment with UACC-62 melanoma and with SN12C renal was over 100 µM in each case. Also, the TGI in the experiment with TK-10 renal, in the experiment with SF-268 CNS and in the experiment with SK-MEL-5 melanoma was over 100 µM throughout.

As for `CC(=O)c1cc(S(=O)(=O)c2ccc(O)c(C(C)=O)c2)ccc1O`, the TGI in the experiment on NCI-H23 lung, in the experiment on UO-31 renal, in the experiment with SK-MEL-2 melanoma, in the experiment on UACC-62 melanoma, in the experiment with SN12C renal and in the experiment on TK-10 renal was over 100 µM throughout. The TGI in the experiment on SF-268 CNS and in the experiment on SK-MEL-5 melanoma was over 100 µM throughout.

On to `CCC(=O)Nc1ccc(N2C(=O)/C(=C/c3ccc(O)c(OC)c3)N=C2c2ccccc2)cc1`, for which the TGI was over 100 µM in the experiment with NCI-H23 lung; over 100 µM in the experiment with SNB-75 CNS; over 100 µM in the experiment with UO-31 renal; over 100 µM with HS 578T breast; 93.5 µM in the experiment on SK-MEL-2 melanoma; over 100 µM in the experiment on UACC-62 melanoma. In addition, the TGI is over 100 µM in the experiment on SN12C renal, over 100 µM with SF-268 CNS and 32.8 µM in the experiment with SK-MEL-5 melanoma.

As to `COc1ccc(C[C@H]2COC(=O)[C@@H]2Cc2ccccc2)cc1OC`, the TGI in the experiment with NCI-H23 lung, in the experiment with HS 578T breast, in the experiment on SN12C renal, in the experiment on TK-10 renal and in the experiment on SK-MEL-5 melanoma was over 100 µM each time.

Turning to `COc1ccc2c3c([nH]c2c1)-c1nc2ccccc2c(=O)n1CC3`, the TGI in the experiment on SNB-75 CNS was over 25 µM; in the experiment with UO-31 renal it was over 25 µM; with HS 578T breast, 10.6 µM; in the experiment on SN12C renal, over 25 µM; in the experiment on TK-10 renal, over 25 µM; with SF-268 CNS it was over 25 µM. Further, in the experiment with SK-MEL-5 melanoma, the TGI was over 25 µM. In addition, the GI50 with HS 578T breast was 1.59 µM.

For `Cc1cc(=O)[nH]c(NN2C(Cl)C(=O)C2c2ccco2)n1` (stereo not given), the TGI in the experiment on NCI-H23 lung is over 100 µM; in the experiment with SNB-75 CNS it was 68 µM; in the experiment with UO-31 renal, over 100 µM; with SK-MEL-2 melanoma, 99.7 µM; in the experiment on UACC-62 melanoma, 63.6 µM; with SN12C renal it was 77 µM. The TGI with TK-10 renal, in the experiment on SF-268 CNS and in the experiment on SK-MEL-5 melanoma was over 100 µM in each case.

`Cc1ccc(Cl)c2c(=O)cc(-c3ccccc3)[nH]c12`: the TGI is over 100 µM in the experiment with NCI-H23 lung; 87.1 µM in the experiment on SNB-75 CNS; over 100 µM in the experiment on UO-31 renal; over 100 µM in the experiment with SK-MEL-2 melanoma; over 100 µM in the experiment on UACC-62 melanoma; over 100 µM with SN12C renal. The TGI in the experiment on TK-10 renal, in the experiment on SF-268 CNS and with SK-MEL-5 melanoma was over 100 µM in each case.
